Measurements from patent publication US9567586B2, “EpCAM aptamer for detection of cancer stem cells” (DEAKIN UNIVERSITY, priority 2012, dated 2017).

Legend:
EpCAM [1] = experiment: Immunofluorescence staining of paraffin embedded xenograft tumour sections; design: species or system human; key to Quantification of anti-EpCAM staining by immunofluorescence: ‘−’ no staining; ‘+’ faint incomplete staining in >10% of cells; ‘++’ moderate complete membrance staining; ‘+++’ strong complete membrance staining; details: for Quantification of anti-EpCAM staining by immunofluorescence: U118MG xenograft
Method: (§1) A: Immunofluorescence staining of breast cancer (T47D, MCF7 and MDA-MB-231), colon cancer (HT-29) and glioblastoma (U118MG) xenograft tumours by EpCAM aptamers, DT3 and 23, control aptamer and the anti-EpCAM antibody, 323/A3 (Blue: nuclei; Red: EpCAM positive staining). B: Immunohistochemistry was performed with the anti-EpCAM antibody BerEP4, and all tumours were evaluated by haematoxylin and eosin staining for morphological confirmation. Aptamer staining was performed for 15 min at 37° C., while 323/A3 staining was performed at 4° C. overnight and BerEP4 was performed at room temperature for 20 min. All fluorescent images were taken at 60×, while light microscopy images were taken at 20×. Images are representative of at least three separate experiments. Scale bar: 50 μm.
(§2) The cell lines of human origin used in this study were purchased from American type Culture Collection. They were glioblastoma U118-MG; breast carcinoma MCF-7, MDA-MB-231 and T47D; and colorectal adenocarcinoma HT-29. Cells were grown and maintained in culture with Dulbecco's Modified Eagle medium (DMEM) (Invitrogen, Victoria, Australia) supplemented with 10% fetal calf serum (MCF-7, T47D, HT-29, and U118-MG), or Roswell Park Memorial Institute 1640 (RPMI 1640) (Invitrogen) with 10% fetal calf serum (MDA-MB-231). Cells were maintained at 37 ^CC in a humidified atmosphere containing 5% CO2. For xenograft studies, single cell suspensions were harvested by trypsinisation, washed with PBS and resuspended in 0.1 mL of PBS for implantation in BALB/c-Foxn1 ^nu female mice. Once tumours had reached approximately […], they were excised and fixed in 10% neutral buffered formalin prior to processing and embedding. All animal procedures were approved by Deakin University Animal Welfare Committee, and in accordance with the Australian Code of Practice for the Care and Use of Animals for Scientific Purposes.
(§3) Sections from each of the xenograft tumours were cut at 4 μm onto polylysine coated slides prior to deparaffinisation with Histoclear and rehydration through graded ethanol. Heat induced antigen retrieval was performed in a microwave oven using Tris-EDTA buffer (10 mM Tris, 1 mM EDTA, 0.05% Tween 20, pH 9.0) for 20 min and the slides were allowed to cool prior to blocking with 0.1 mg/mL tRNA, 0.1 mg/mL salmon sperm DNA and 1 mg/mL bovine serum albumin (BSA) in phosphate buffered saline (PBS) for 20 min. Following the blocking step, slides were washed in PBS containing 0.1% Tween 20 twice for 2 min prior to incubation with either aptamer or antibody. Aptamers were prepared as previously described (Shigdar S et al, supra). Briefly, aptamers were heated to 85° C. for 5 min, allowed to cool to room temperature for 10 min and then heated at 37° C. for 15 min. Slides were incubated with aptamers at 100 nM concentration in a solution of PBS containing 5 mM MgCl2, 0.1 mg/mL tRNA, 1 mg/mL BSA, 10% dextran sulphate and 500 μg/mL heparin for 15 min at 37° C. The slides were then washed three times for 5 min each prior to incubation with Bisbenzimide Hoechst 33342 (3 μg/mL) for 10 min. Slides were then mounted using VECTASHIELD and coverslipped prior to visualisation using a Fluoview FV10i laser scanning confocal microscope. All images used for direct comparison were taken with identical exposure parameters and are presented without any digital contrast alteration or background subtraction. Antibody staining was performed using the anti-EpCAM antibody 323/A3 (ab8601, Abcam). […]

HT-29 tumor sphere = experiment: Penetration and retention in HT-29 tumor sphere (confocal microscopy); type: cell-based, human; details: for penetration into tumor sphere: 100 nM, 0.5-4 h incubation, sphere ~300-400 μm; for fluorescence signal retained in tumor sphere: 4 h incubation, wash, further 24 h in culture medium
Method: HT-29 or HEK293T cells were cultured in stem cell culture medium (DMEM/F12 with 20 ng/ml EGF and FGF and B27). […] After incubating for 0.5, 1, 2 or 4 h, the spheres were washed twice with PBS and imaged via fluorescence confocal microscopy. A phase contrast image of the sphere was also taken for each sample. Panel A fluorescence image for antibody EpCAM, Panel B phase contrast image for tumor sphere. Panel C: fluorescence image for aptamer EpCAM 23, Panel D: phase contrast image for tumor sphere. Panel E: fluorescence image aptamer control, Panel F: phase contrast image for tumor sphere.
Tumour spheres were incubated with EpCAM antibody, aptamer-23 or control aptamer for 4 h. After washing with PBS twice, the tumor spheres were incubated with the culture medium for a further 24 h followed by confocal microscopy. Panel A: fluorescence image for antibody or aptamer. Panel B: phase contrast image for tumour sphere.
To study the ability of EpCAM aptamer or antibody to penetrate tumors, the inventors used a three-dimensional in vitro tumor sphere model. […] After incubating for the indicated time, the spheres were washed twice with PBS and imaged via fluorescence confocal microscopy. A phase contrast image of the sphere was also taken for each sample. […] A retention study was performed whereby the tumour spheres were incubated with EpCAM antibody, aptamer-23 or control aptamer for 4 h, after washing with PBS twice, the tumor spheres were incubated with the culture medium for a further 24 h followed by confocal microscopy.

EpCAM [2] = target: T1, EpCAM (Homo sapiens, UniProt P16422); experiment: Immunofluorescence staining of paraffin embedded xenograft tumour sections; design: from tissue; host or cells: xenograft tumours of T47D, MCF7, MDA-MB-231, HT-29 and U118MG cells grown in BALB/c-Foxn1 nu mice, formalin-fixed and paraffin-embedded; key to Quantification of anti-EpCAM staining by immunofluorescence: ‘−’ no staining; ‘+’ faint incomplete staining in >10% of cells; ‘++’ moderate complete membrance staining; ‘+++’ strong complete membrance staining
T1 sequence (P16422 24-314): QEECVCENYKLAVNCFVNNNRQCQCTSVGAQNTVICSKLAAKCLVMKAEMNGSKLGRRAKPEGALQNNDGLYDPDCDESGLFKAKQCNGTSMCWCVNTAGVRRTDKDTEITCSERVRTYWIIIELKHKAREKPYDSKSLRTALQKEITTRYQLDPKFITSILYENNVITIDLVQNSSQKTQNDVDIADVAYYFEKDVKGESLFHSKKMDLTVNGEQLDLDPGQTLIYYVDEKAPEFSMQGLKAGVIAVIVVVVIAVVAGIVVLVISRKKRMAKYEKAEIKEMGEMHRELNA
Method: as §1, §2
as §3, with “Abcam). Slides were washed and blocked following the same protocol as previously described prior to antibody staining. The antibody was prepared at a concentration of 10 μg/mL and the slides were incubated overnight at 4° C. Slides were then washed three times for 5 min followed by incubation with a goat-anti-mouse IgG AlexaFluor 647 conjugate (Invitrogen) at a concentration of 10 μg/mL for 2 h prior to washing, staining with Bisbenzimide Hoechst 33342, and coverslipping.” for “Abcam).”

Row | Substance | Quantification of anti-EpCAM staining by immunofluorescence (EpCAM [1]) | staining of U118MG xenograft (in words) (EpCAM [1]; U118MG xenograft that does not express EpCAM) | penetration into tumor sphere (HT-29 tumor sphere) | fluorescence signal retained in tumor sphere (HT-29 tumor sphere) | retention by the tumor cells (HT-29 tumor sphere; after 4 h incubation and wash) | staining of HT-29 xenograft sections (in words) (EpCAM [2]; HT-29 colorectal cancer xenograft) | Quantification of anti-EpCAM staining by immunofluorescence (EpCAM [2]; HT-29 xenograft) | Quantification of anti-EpCAM staining by immunofluorescence (EpCAM [2]; MCF7 xenograft) | Quantification of anti-EpCAM staining by immunofluorescence (EpCAM [2]; MDA-MB-231 xenograft) | detection of EpCAM in MDA-MB-231 xenograft tumour (in words) (EpCAM [2]; MDA-MB-231 xenograft, low EpCAM expression) | Quantification of anti-EpCAM staining by immunofluorescence (EpCAM [2]; T47D xenograft) | staining of human breast cancer xenografts (in words) (EpCAM [2]; T47D, MCF7 and MDA-MB-231 xenografts, 100 nM, 15 min, 37° C., dextran sulphate and heparin)
1 | 5′-ACGUAUCCCUUUUCGCGUA-3′ (RNA aptamer, fluorescent dye conjugate used, modifications not given here, further chemistry not given here) [compound 23] | − | no staining detectable | could penetrate into the core or center of the tumor sphere | clearly detectable signal | at least 24 hours | strong positive staining | +++ | ++ | + (‘+’ faint incomplete staining in >10% of cells) | successfully detect EpCAM | +++ | highly sensitive staining
2 | 5′-DY647-mGCmGACUmGmGUUmACCCmGmGUCmGdT-3′ (GCGACUGGUUACCCGGUCGN; 5' DY647, 2'-O-methyl, 3' dT, further chemistry not given here) [Control] | − |  | only limited non-specific binding | very weak signal |  |  | − | − | − |  | − | 
